According to PubChem BioAssay (NCI):
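Assay format: 96-well plates, 48-hour exposure. GI50 = concentration required for 50% inhibition of growth. TGI: concentration producing complete growth inhibition.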

What was measured:
Experiment in all cases: inhibition of tumour cell growth, NCI panel, 48 h
SF-295 CNS = tested on: SF-295 CNS
SW-620 colon = tested on: SW-620 colon
NCI-H226 lung = tested on: NCI-H226 lung
CCRF-CEM leukemia = tested on: CCRF-CEM leukemia
SR leukemia = tested on: SR leukemia
MALME-3M melanoma = tested on: MALME-3M melanoma
NCI-H522 lung = tested on: NCI-H522 lung
HL-60(TB) leukemia = tested on: HL-60(TB) leukemia
SK-MEL-28 melanoma = tested on: SK-MEL-28 melanoma
HCT-116 colon = tested on: HCT-116 colon
BT-549 breast = tested on: BT-549 breast
A498 renal = tested on: A498 renal
PC-3 prostate = tested on: PC-3 prostate
SK-OV-3 ovarian = tested on: SK-OV-3 ovarian
SK-MEL-2 melanoma = tested on: SK-MEL-2 melanoma
EKVX NSCLC = tested on: EKVX NSCLC
RXF 393 renal = tested on: RXF 393 renal
IGROV1 ovarian = tested on: IGROV1 ovarian
HS 578T breast = tested on: HS 578T breast
HOP-62 NSCLC = tested on: HOP-62 NSCLC
COLO 205 colon = tested on: COLO 205 colon
HT29 colon = tested on: HT29 colon
SK-MEL-5 melanoma = tested on: SK-MEL-5 melanoma
KM12 colon = tested on: KM12 colon
SF-268 CNS = tested on: SF-268 CNS
T-47D breast = tested on: T-47D breast
NCI-H23 lung = tested on: NCI-H23 lung
UO-31 renal = tested on: UO-31 renal
SNB-19 CNS = tested on: SNB-19 CNS
DU-145 prostate = tested on: DU-145 prostate
OVCAR-3 ovarian = tested on: OVCAR-3 ovarian
K-562 leukemia = tested on: K-562 leukemia
MOLT-4 leukemia = tested on: MOLT-4 leukemia
SN12C renal = tested on: SN12C renal
LOX IMVI melanoma = tested on: LOX IMVI melanoma
U251 CNS = tested on: U251 CNS
SF-539 CNS = tested on: SF-539 CNS
MDA-MB-435 = tested on: MDA-MB-435
HCC-2998 colon = tested on: HCC-2998 colon
A549 NSCLC = tested on: A549 NSCLC
SNB-75 CNS = tested on: SNB-75 CNS
UACC-257 melanoma = tested on: UACC-257 melanoma
TK-10 renal = tested on: TK-10 renal
NCI-H460 lung = tested on: NCI-H460 lung
CAKI-1 renal = tested on: CAKI-1 renal
MCF7 breast = tested on: MCF7 breast
MDA-MB-231 breast = tested on: MDA-MB-231 breast
OVCAR-5 ovarian = tested on: OVCAR-5 ovarian
UACC-62 melanoma = tested on: UACC-62 melanoma
M14 melanoma = tested on: M14 melanoma
RPMI-8226 leukemia = tested on: RPMI-8226 leukemia
HCT-15 colon = tested on: HCT-15 colon
786-0 renal = tested on: 786-0 renal
NCI/ADR-RES ovarian = tested on: NCI/ADR-RES ovarian
OVCAR-8 ovarian = tested on: OVCAR-8 ovarian
HOP-92 NSCLC = tested on: HOP-92 NSCLC
OVCAR-4 ovarian = tested on: OVCAR-4 ovarian
ACHN renal = tested on: ACHN renal

`O=C(N/N=C/c1ccc([N+](=O)[O-])s1)c1[nH]c2ccc(Br)cc2c1-c1ccccc1` was tested, and the GI50 (SF-295 CNS) was 596 nM, the TGI (SF-295 CNS) was 12200 nM and the GI50 (SW-620 colon) was 768 nM. The TGI (SW-620 colon) was 8530 nM, the GI50 (NCI-H226 lung) was 716 nM and the TGI (NCI-H226 lung) was 2780 nM. The GI50 (CCRF-CEM leukemia) was 1220 nM, the TGI (CCRF-CEM leukemia) was 99600 nM and the GI50 (SR leukemia) was 391 nM. It also gave a TGI (SR leukemia) of 10600 nM, a GI50 (MALME-3M melanoma) of 800 nM and a TGI (MALME-3M melanoma) of 4500 nM. For the same compound, the GI50 (NCI-H522 lung) was 115 nM, the TGI (NCI-H522 lung) was 535 nM and the GI50 (HL-60(TB) leukemia) was 723 nM. For the same compound, the TGI (HL-60(TB) leukemia) was 1940 nM, the GI50 (SK-MEL-28 melanoma) was 995 nM and the TGI (SK-MEL-28 melanoma) was > 34200 nM. It also gave a GI50 (HCT-116 colon) of 816 nM, a TGI (HCT-116 colon) of 4700 nM and a GI50 (BT-549 breast) of 747 nM. The TGI (BT-549 breast) was 2670 nM, the GI50 (A498 renal) was > 34700 nM and the TGI (A498 renal) was > 92100 nM. The GI50 (PC-3 prostate) was 967 nM, the GI50 (SK-OV-3 ovarian) was 1690 nM and the TGI (SK-OV-3 ovarian) was > 53500 nM. The GI50 (SK-MEL-2 melanoma) was 769 nM, the TGI (SK-MEL-2 melanoma) was 2540 nM and the GI50 (EKVX NSCLC) was 1720 nM. For the same compound, the TGI (EKVX NSCLC) was 8290 nM, the GI50 (RXF 393 renal) was 354 nM and the TGI (RXF 393 renal) was 9220 nM. For the same compound, the GI50 (IGROV1 ovarian) was 932 nM, the TGI (IGROV1 ovarian) was > 50900 nM and the GI50 (HS 578T breast) was 943 nM. The TGI (HS 578T breast) was 12900 nM, the GI50 (HOP-62 NSCLC) was 1070 nM and the TGI (HOP-62 NSCLC) was 6970 nM. For the same compound, the GI50 (COLO 205 colon) was 578 nM, the TGI (COLO 205 colon) was 1140 nM and the GI50 (HT29 colon) was 858 nM. The TGI (HT29 colon) was 2800 nM, the GI50 (SK-MEL-5 melanoma) was 605 nM and the TGI (SK-MEL-5 melanoma) was 1290 nM. The GI50 (KM12 colon) was 1080 nM, the TGI (KM12 colon) was 5470 nM and the GI50 (SF-268 CNS) was 1840 nM. For the same compound, the TGI (SF-268 CNS) was > 100000 nM, the GI50 (T-47D breast) was 2350 nM and the TGI (T-47D breast) was > 91300 nM. The GI50 (NCI-H23 lung) was 1180 nM, the TGI (NCI-H23 lung) was 18800 nM and the GI50 (UO-31 renal) was 1040 nM. The TGI (UO-31 renal) was > 33400 nM, the GI50 (SNB-19 CNS) was 961 nM and the TGI (SNB-19 CNS) was > 32300 nM. The GI50 (DU-145 prostate) was 1140 nM, the TGI (DU-145 prostate) was > 55400 nM and the GI50 (OVCAR-3 ovarian) was 1060 nM. For the same compound, the TGI (OVCAR-3 ovarian) was 9860 nM, the GI50 (K-562 leukemia) was 365 nM and the TGI (K-562 leukemia) was 14200 nM. The GI50 (MOLT-4 leukemia) was 1070 nM, the TGI (MOLT-4 leukemia) was 16600 nM and the GI50 (SN12C renal) was 885 nM. It also gave a TGI (SN12C renal) of 3130 nM, a GI50 (LOX IMVI melanoma) of 487 nM and a TGI (LOX IMVI melanoma) of 12700 nM. The GI50 (U251 CNS) was 716 nM, the TGI (U251 CNS) was 3030 nM and the GI50 (SF-539 CNS) was 515 nM. For the same compound, the TGI (SF-539 CNS) was 1510 nM, the GI50 (MDA-MB-435) was 323 nM and the TGI (MDA-MB-435) was 918 nM. It also gave a GI50 (HCC-2998 colon) of 787 nM, a TGI (HCC-2998 colon) of 2120 nM and a GI50 (A549 NSCLC) of 1070 nM. It also gave a TGI (A549 NSCLC) of 12900 nM, a GI50 (SNB-75 CNS) of 320 nM and a TGI (SNB-75 CNS) of 5710 nM. For the same compound, the GI50 (UACC-257 melanoma) was 916 nM, the TGI (UACC-257 melanoma) was 9150 nM and the GI50 (TK-10 renal) was 2970 nM. The TGI (TK-10 renal) was > 49800 nM, the GI50 (NCI-H460 lung) was 820 nM and the TGI (NCI-H460 lung) was 3030 nM. The GI50 (CAKI-1 renal) was 1510 nM, the TGI (CAKI-1 renal) was > 26100 nM and the GI50 (MCF7 breast) was 741 nM. The TGI (MCF7 breast) was > 32400 nM, the GI50 (MDA-MB-231 breast) was 881 nM and the TGI (MDA-MB-231 breast) was 2850 nM. For the same compound, the GI50 (OVCAR-5 ovarian) was 1140 nM, the TGI (OVCAR-5 ovarian) was 27200 nM and the GI50 (UACC-62 melanoma) was 401 nM. For the same compound, the TGI (UACC-62 melanoma) was 3980 nM, the GI50 (M14 melanoma) was 627 nM and the TGI (M14 melanoma) was 2030 nM. It also gave a GI50 (RPMI-8226 leukemia) of 912 nM, a TGI (RPMI-8226 leukemia) of 8560 nM and a GI50 (HCT-15 colon) of 706 nM. For the same compound, the TGI (HCT-15 colon) was 2720 nM, the GI50 (786-0 renal) was 1300 nM and the TGI (786-0 renal) was 19200 nM. The GI50 (NCI/ADR-RES ovarian) was 458 nM, the GI50 (OVCAR-8 ovarian) was 756 nM and the TGI (OVCAR-8 ovarian) was 2080 nM. For the same compound, the GI50 (HOP-92 NSCLC) was 851 nM, the TGI (HOP-92 NSCLC) was 4610 nM and the GI50 (OVCAR-4 ovarian) was 1630 nM. The TGI (OVCAR-4 ovarian) was > 46900 nM and the GI50 (ACHN renal) was 883 nM.
